Reference: patent US5681708A, “Method for screening compositions” (SmithKline Beecham Corporation, priority 1994, dated 1997)

Target: T1, CD4/Lck protein complex (Homo sapiens, UniProt P01730+P06239)
T1 construct: Detergent extracts of CEM cells were prepared by pelleting cells; endogenous in cells; host or cells: CEM (ATCC CCL 119), acute lymphoblastic CD4-positive human T-cell line; diluted detergent (NP-40) extract
Experiment: CD4/Lck Dissociation Assay (ELISA-based, CEM cell extracts)
Assay type: biochemical
Details: CEM cell detergent extract, 30 min at 30° C., OKT4 capture, C-Lck detection; read-out: IC50, concentration of test compound which dissociated 50% of the target CD4/Lck protein complex relative to controls
Method: Acute lymphoblastic CD4-positive human T-cells, from the T-cell line CEM (ATCC CCL 119), were grown in suspension in RPMI-1640 medium supplemented with 10% heat-inactivated fetal calf serum at 37° C. to a cell density of 0.8-1.2×10^6 cells/mi. Detergent extracts of CEM cells were prepared by pelleting cells, washing with Dulbecco's phosphate buffered saline without Ca and Mg (D-PBS) at 4° C. and resuspending the cell pellet in sufficient freshly prepared extraction buffer (50 mM Tris, pH 8.0, 150 mM NaCl, 2 mM EDTA, 50 mM NaF, 3% NONIDET™ P-40, 0.1 mMNa vanadate, 0.1 mM PMSF, 10 ug/ml leupeptin, 10 ug/ml aprotinin, 10 ug/ml TLCK) to yield 1.0×10^8 cells in a volume of 1 ml. The cell pellet was resuspended gently on ice until a homogeneous suspension was obtained and kept on ice for at least 30 min with occasional vortexing. The suspension was then centrifuged at 29,000 xg for 30 min at 4° C.; the clear cell extract supernatant was transferred to a clean tube and placed on ice.
Cell extracts were diluted 16-fold with ice-cold PBS (0.1M phosphate, 0.15M NaCl, ph 7.4) containing 0.5% (w/v) BSA and 0.05% (v/v) TWEEN™ 20 (PBT) to yield 6.25×10^6 cell equivalents/mi. Candidate dissociative agents were diluted to 1 mg/ml with ddH2 O and 10 ul were added to Corning plate wells. A 90 ul volume of diluted cell extract (5.6×10^5 cell equivalents) were added to the Corning plate wells containing an organic solvent to provide a final candidate agent concentration of 0.1 mg/ml. Exemplary organic solvents are DMSO and ethanol. The resulting final concentration of organic solvent was 1%. The plates were incubated for 30 min at 30° C. in a water bath and then transferred to ice. Alternatively, diluted cell extracts can be incubated with candidate agents for 2 to 3 hours at room temperature (22°-25° C.).
ELISA assay plate wells were prepared by coating MaxiSorp™ (Nunc, round-bottom wells) or TITERTEK™ plate wells overnight at 4° C. with 100 ul of 2.5 ug/ml OKT4 CD4 mAb in 0.1M NaHCO3, pH 9.2. TITERTEK™ and Corning ELISA plates were also successfully used. Other CD4 monoclonal antibodies which bind to portions of the V1 domain in the extracellular portion of the CD4 molecule may also be used. All CD4 monoclonal antibodies were either purchased from Ortho or purified from specific hybridomas available from the ATCC. OKT4 hybridoma is available under ATCC CRL 8002.
When ready for use, the coating solution was removed and the wells rinsed 3× with PBS. A blocking step was performed by adding 0.3 ml PBT per well and incubating at least 30 min at 37° C. All PBT was removed and 50 ul of diluted cell extracts were added to the test wells. 50 ul of extraction buffer/PBT (1:15, v/v) were added to the assay blank wells. The plates were sealed and incubated 1 hour at 4° C. […]

T1 sequence (P06239 2-509 limits assumed, other chains not shown): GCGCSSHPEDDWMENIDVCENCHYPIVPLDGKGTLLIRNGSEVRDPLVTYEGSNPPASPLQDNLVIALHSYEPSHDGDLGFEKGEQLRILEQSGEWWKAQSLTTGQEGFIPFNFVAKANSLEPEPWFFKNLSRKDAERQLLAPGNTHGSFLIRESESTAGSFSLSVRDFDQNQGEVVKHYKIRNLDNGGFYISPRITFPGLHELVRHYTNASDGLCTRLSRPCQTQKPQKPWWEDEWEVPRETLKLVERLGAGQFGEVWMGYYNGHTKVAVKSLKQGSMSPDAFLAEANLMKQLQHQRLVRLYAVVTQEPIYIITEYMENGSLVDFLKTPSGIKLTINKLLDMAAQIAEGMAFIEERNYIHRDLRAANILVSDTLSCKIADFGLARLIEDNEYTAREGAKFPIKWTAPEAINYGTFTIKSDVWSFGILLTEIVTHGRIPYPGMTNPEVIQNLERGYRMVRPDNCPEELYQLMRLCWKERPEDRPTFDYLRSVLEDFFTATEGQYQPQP

Compound | IC50
5,7-dihydroxy-4'-methoxyisoflavone [Genistein] | > 200 µM
CCCCCCCCCCCC1N=C(N)N2CCCC2=C1C(=O)OCCCCNC(=N)N (stereo not shown) [Crambine A] | < 100 µM
N#CC(C#N)=Cc1ccc(O)c(O)c1 [LC-A23, 2-cyano, 3-(3,4-dihydroxyphenyl)acrylonitrile] | > 500 µM
N#C/C(=C\c1ccc(O)c(O)c1)C(N)=O [LC-A46, trans-2-cyano, 3-(3,4-dihydroxyphenyl)acrylamide] | 300 µM
